Test results as given in BindingDB's records for PubMed 33316752 (University of Sharjah, 2021).

Molecular target: RAF proto-oncogene serine/threonine-protein kinase (Homo sapiens, UniProt P04049)
Assay: Inhibition of RAF1 (unknown origin) incubated for 40 mins by scintillation counting analysis

RAF proto-oncogene serine/threonine-protein kinase, sequence (P04049 whole entry): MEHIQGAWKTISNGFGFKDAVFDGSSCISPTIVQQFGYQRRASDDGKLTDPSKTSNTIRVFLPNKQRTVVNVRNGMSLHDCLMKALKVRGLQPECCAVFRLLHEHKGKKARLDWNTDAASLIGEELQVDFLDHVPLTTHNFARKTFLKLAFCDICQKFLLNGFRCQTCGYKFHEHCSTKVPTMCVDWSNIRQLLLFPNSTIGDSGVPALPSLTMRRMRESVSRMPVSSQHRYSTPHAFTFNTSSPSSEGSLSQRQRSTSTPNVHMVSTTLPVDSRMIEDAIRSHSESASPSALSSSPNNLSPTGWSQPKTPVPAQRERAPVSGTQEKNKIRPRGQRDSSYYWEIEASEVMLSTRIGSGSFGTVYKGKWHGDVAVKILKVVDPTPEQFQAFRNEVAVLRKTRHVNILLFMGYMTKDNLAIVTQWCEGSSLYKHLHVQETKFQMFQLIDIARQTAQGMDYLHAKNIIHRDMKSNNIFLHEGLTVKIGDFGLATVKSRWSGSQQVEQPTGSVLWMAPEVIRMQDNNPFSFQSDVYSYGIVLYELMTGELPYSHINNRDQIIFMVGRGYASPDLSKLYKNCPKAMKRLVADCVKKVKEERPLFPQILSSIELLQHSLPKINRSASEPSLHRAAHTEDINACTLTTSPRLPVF

IC50: 8.2 nM
SMILES: O=C(NCCNc1nccc(-c2c(-c3cccc(O)c3)nc3sccn23)n1)c1ccccc1
